Source: patent US9376391B2, “Difluoromethyl-nicotinic-tetrahydronaphthyl carboxamides as fungicides” (BAYER CROPSCIENCE AKTIENGESELLSCHAFT, priority 2012, dated 2016)

Assays:
[1] = system: Septoria tritici; assay: In vivo preventive test on Septoria tritici (leaf spot on wheat); conditions: preventive spray, wheat plants, grading 24 days after contamination
Procedure: In Vivo Preventive Test on Septoria tritici (Leaf Spot on Wheat)
(§1) The active ingredients tested are prepared by homogenization in a mixture of acetone/tween/DMSO, and then diluted with water to obtain the desired active material concentration.
Wheat plants (“Scipion” variety), sown in starter cups on a 50/50 peat soil-pozzolana substrate and grown at 22° C., are treated at the 1-leaf stage (10 cm height) by spraying with the active ingredient prepared as described above. Plants, used as controls, are treated with the mixture of acetone/tween/DMSO/water not containing the active material.
After 24 hours, the plants are contaminated by spraying the leaves with an aqueous suspension of cryopreserved Septoria tritici spores (500 000 spores per ml). The contaminated wheat plants are incubated for 72 hours at 18° C. and at 100% relative humidity, and then for 21 days at 90% relative humidity.
Grading (% of efficacy) is carried out 24 days after the contamination, in comparison with the control plants.

[2] = system: Pyrenophora teres; assay: In vivo preventive test on Pyrenophora teres (net blotch on barley); conditions: for Eff. %: barley, spray, graded 14 days after contamination vs control plants
Procedure: In Vivo Preventive Test on Pyrenophora teres (Net Blotch on Barley)
as §1
Barley plants (“Plaisant” variety), sown in starter cups on a 50/50 peat soil-pozzolana substrate and grown at 22° C., are treated at the 1-leaf stage (10 cm height) by spraying with the active ingredient prepared as described above. Plants, used as controls, are treated with the mixture of acetone/tween/DMSO/water not containing the active material.
After 24 hours, the plants are contaminated by spraying the leaves with an aqueous suspension of Pyrenophora teres spores (12 000 spores per ml). The spores are collected from a 12-day-old culture. The contaminated barley plants are incubated for 48 hours at 20° C. and at 100% relative humidity, and then for 12 days at 20° C. at 70-80% relative humidity.
Grading (% of efficacy) is carried out 14 days after the contamination, in comparison with the control plants. plants.

[3] = system: Puccinia recondita; assay: In vivo preventive test on Puccinia recondita (brown rust on wheat); conditions: for Eff. %: wheat, spray, graded 12 days after contamination vs control plants
Procedure: In Vivo Preventive Test on Puccinia recondita (Brown Rust on Wheat) […] Wheat plants (“Scipion” variety), sown in starter cups on a 50/50 peat soil-pozzolana substrate and grown at 22° C., are treated at the 1-leaf stage (10 cm height) by spraying with the active ingredient prepared as described above. Plants, used as controls, are treated with the mixture of acetone/tween/DMSO/water not containing the active material. After 24 hours, the plants are contaminated by spraying the leaves with an aqueous suspension of Puccinia recondita spores (100 000 spores per ml). The spores are collected from an infected plant and are suspended in water containing 2.5 ml/1 of Tween 80 at 10%. The contaminated wheat plants are incubated for 24 hours at 20° C. and at 100% relative humidity, and then for 10 days at 20° C. and at 70-80% relative humidity. Grading (% of efficacy) is carried out 12 days after the contamination, in comparison with the control plants.

[4] = system: Uromyces appendiculatus; assay: In vivo preventive test on Uromyces appendiculatus (bean rust); conditions: preventive spray, bean plants, grading 11 days after contamination
Procedure: In Vivo Preventive Test on Uromyces appendiculatus (Bean Rust) […] Bean plants (“Saxa” variety), sown in starter cups on a 50/50 peat soil-pozzolana substrate and grown at 24° C., are treated at the 2-leaf stage (9 cm height) by spraying with the active ingredient prepared as described above. Plants, used as controls, are treated with the mixture of acetone/tween/DMSO/water not containing the active material. After 24 hours, the plants are contaminated by spraying the leaves with an aqueous suspension of Uromyces appendiculatus spores (150 000 spores per ml). The spores are collected from infected plants and are suspended in water containing 2.5 ml/1 of Tween 80 at 10%. The contaminated bean plants are incubated for 24 hours at 20° C. and at 100% relative humidity, and then for 10 days at 20° C. and at 70-80% relative humidity. Grading (% of efficacy) is carried out 11 days after the contamination, in comparison with the control plants.

[5] = system: Alternaria brassicae; assay: In vivo preventive test on Alternaria brassicae (leaf spot on radish); conditions: spray, graded 6 days after contamination vs control plants
Procedure: In Vivo Preventive Test on Alternaria brassicae (Leaf Spot on Radish)
as §1
Radish plants (“Pernod Clair” variety), sown in starter cups on a 50/50 peat soil-pozzolana substrate and grown at 17° C., are treated at the cotyledon stage by spraying with the active ingredient prepared as described above. Plants, used as controls, are treated with the mixture of acetone/tween/DMSO/water not containing the active material.
After 24 hours, the plants are contaminated by spraying the cotyledons with an aqueous suspension of Alternaria brassicae spores (50 000 spores per ml). The spores are collected from a 15-day-old culture. The contaminated radish plants are incubated at 20° C. and at 100% relative humidity.
Grading (% of efficacy) is carried out 6 days after the contamination, in comparison with the control plants.

[6] = log P by HPLC on reversed phase columns (EEC directive 79/831 Annex V.A8); assay type: physicochemical; conditions: Table 1, formula (I); HPLC/LC-MS at pH 2.7, 0.1% formic acid in water / acetonitrile, gradient 10% to 95%
[7] = system: Botrytis cinerea; assay: In vivo preventive test on Botrytis cinerea (grey mould), gherkin plants; conditions: for Eff. %: gherkin, spray, graded 4 to 5 days after contamination vs control plants
Procedure: In Vivo Preventive Test on Botrytis cinerea (Grey Mould)
(§2) The active ingredients tested are prepared by homogenization in a mixture of acetone/tween/DMSO and then diluted with water to obtain the desired active material concentration.
(§3) Gherkin plants (“Vert petit de Paris” variety), sown in starter cups on a 50/50 peat soil-pozzolana substrate and grown at 24° C., are treated at the Z11 cotyledon stage by spraying with the active ingredient prepared as described above. Plants, used as controls, are treated with the mixture of acetone/tween/DMSO/water not containing the active material.
After 24 hours, the plants are contaminated by spraying the cotyledons with an aqueous suspension of cryopreserved Botrytis cinerea spores (50 000 spores per ml). The spores are suspended in a nutrient solution composed of 10 g/L of PDB, 50 g/L of D-Fructose, 2 g/L of NH4NO3 and 1 g/L of KH2PO4. The contaminated gherkin plants are incubated at 17° C. and at 90% relative humidity.
Grading (% of efficacy) is carried out 4 to 5 days after the contamination, in comparison with the control plants.

[8] = system: Sphaerotheca fuliginea; assay: In vivo preventive test on Sphaerotheca fuliginea (powdery mildew on cucurbits); conditions: for Eff. %: preventive spray
Procedure: In Vivo Preventive Test on Sphaerotheca fuliginea (Powdery Mildew on Cucurbits)
as §2, §3
After 24 hours, the plants are contaminated by spraying the cotyledons with an aqueous suspension of Sphaerotheca fuliginea spores (100 000 spores per ml). The spores are collected from infected plants. The contaminated gherkin plants are incubated at about 20° C. and at 70-80% relative humidity.
Grading (% of efficacy) is carried out 12 days after the contamination, in comparison with the control plants.

[9] = 500 ppm, gherkin plants, grading 12 days after contamination
[10] = 100 ppm, gherkin plants, grading 12 days after contamination
[11] = dose 100 ppm of active ingredient, comparison with known compounds
[12] = dose 100 ppm, comparison with known compounds, same conditions

Row | SMILES | logP^[a] [6] | Eff. % ([1]; 500 ppm) [%] | Eff. % ([2]; dose 500 ppm) [%] | Eff. % ([3]; dose 500 ppm) [%] | Eff. % ([4]; 500 ppm) [%] | Eff. % ([5]; dose 500 ppm) [%] | Eff. % [8, 9] [%] | Eff. % ([1]; 100 ppm) [%] | Eff. % [8, 10] [%] | Eff. % ([2]; dose 100 ppm) [%] | Eff. % ([3]; dose 100 ppm) [%] | Eff. % ([4]; 100 ppm) [%] | also measured
1 | CC1CCc2cccc(NC(=O)c3cccnc3C(F)F)c21 (racemic) [Example 4] | 2.63^[a] | 100 | 75 | 97 | 100 | 71 |  |  |  |  |  |  | 
2 | CC(C)(C)C1CCc2c(NC(=O)c3cccnc3C(F)F)cccc21 (racemic) [Example 39] | 3.78^[a] | 86 | 83 | 98 | 100 |  | 94 |  |  |  |  |  | 
3 | CCCCON=C1CC(C)c2c(NC(=O)c3cccnc3C(F)F)cccc21 (racemic) [Example 51] | 3.18^[a] |  | 83 | 75 | 70 | 93 |  |  |  |  |  |  | 
4 | CCON=C1CC(C)c2c(NC(=O)c3cccnc3C(F)F)cccc21 (racemic) [Example 52] | 2.71^[a] | 86 | 75 |  | 93 | 86 |  |  |  |  |  |  | 
5 | CC1CC(C)(C)c2cccc(NC(=O)c3ccccc3C(F)F)c21 (centres unmarked) [2-(difluoromethyl)-N-(1,1,3-trimethyl-2,3-dihydro-1H-inden-4-yl)benzamide, reference compound] |  |  |  |  |  |  |  |  |  |  |  |  | protection (in words) [8, 11]: lower protection; Efficacy ([8]; dose 100 ppm, comparison with prior-art compounds, gherkin plants, grading 12 days after contamination): 0%; protection (in words) [2, 11]: lower protection; Efficacy [2, 12]: 0%; protection (in words) [3, 11]: low protection; Efficacy [3, 12]: 83%; protection (in words) [7, 11]: no protection at all; Efficacy [7, 12]: 0%
6 | CC1CC(C)(C)c2c(F)ccc(NC(=O)c3cccnc3C(F)F)c21 (centres unmarked) [Example 2] | 3.35^[a] | 100 |  | 100 | 100 | 98 | 100 |  |  |  |  |  | Eff. % ([7]; dose 500 ppm): 97%
7 | CC(C)C1c2cccc(NC(=O)c3cccnc3C(F)F)c2CC1C (centres unmarked) [Example 27] | 3.78^[a] | 86 | 83 | 100 | 100 |  | 100 |  |  |  |  |  | Eff. % ([7]; dose 500 ppm): 100%
8 | CC1Cc2c(NC(=O)c3cccnc3C(F)F)cccc2C1C (centres unmarked) [Example 36] | 3.06^[a] |  | 75 | 98 | 100 |  |  |  |  |  |  |  | 
9 | CC(C)C1Cc2c(NC(=S)c3cccnc3C(F)F)cccc2C1(C)C (centres unmarked) [Example 65] | 4.46^[a] |  |  |  |  |  |  | 80 | 98 | 70 | 98 | 100 | Eff. % ([7]; dose 100 ppm): 100%
10 | CCC1Cc2c(NC(=S)c3cccnc3C(F)F)cccc2C1(C)C (centres unmarked) [Example 69] | 4.16^[a] |  |  |  |  |  |  | 80 | 100 | 70 | 100 | 100 | 
11 | CC(C)(C)CC1CCc2cccc(NC(=O)c3cccnc3C(F)F)c21 (centres unmarked) [Example 90] | 3.92^[a] |  |  |  |  |  |  | 96 | 100 | 86 | 98 | 100 | Eff. % ([5]; dose 100 ppm): 93%; Eff. % ([7]; dose 100 ppm): 80%

Continued, in another order:

Row | logP^[a] [6] | SMILES | Eff. % ([1]; 500 ppm) [%] | Eff. % ([2]; dose 500 ppm) [%] | Eff. % ([3]; dose 500 ppm) [%] | Eff. % ([4]; 500 ppm) [%] | Eff. % ([5]; dose 500 ppm) [%] | Eff. % [8, 9] [%] | Eff. % ([1]; 100 ppm) [%] | Eff. % [8, 10] [%] | Eff. % ([2]; dose 100 ppm) [%] | Eff. % ([3]; dose 100 ppm) [%] | Eff. % ([4]; 100 ppm) [%] | also measured
12 | 2.11^[a] | CC1OC(C)(C)c2cccc(NC(=O)c3cccnc3C(F)F)c21 (racemic) [Example 12] | 96 | 86 | 100 | 100 |  |  |  |  |  |  |  | Eff. % ([7]; dose 500 ppm): 100%
13 | 3.64^[a] | CCC1(CC)OC(C(C)C)c2c(NC(=O)c3cccnc3C(F)F)cccc21 (racemic) [Example 56] | 93 | 92 | 88 | 100 | 93 | 98 |  |  |  |  |  | 
14 | 2.73^[a] | CC(C)C1OC(C)(C)c2cccc(NC(=O)c3cccnc3C(F)F)c21 (racemic) [Example 76] |  |  |  |  |  |  | 97 | 98 | 92 | 94 | 96 | Eff. % ([5]; dose 100 ppm): 75%; Eff. % ([7]; dose 100 ppm): 98%
15 | 3.48^[a] | CC1c2c(NC(=O)c3cccnc3C(F)F)cccc2C(C)(C)C1C (centres unmarked) [Example 33] | 100 |  | 100 | 100 | 100 | 100 |  |  |  |  |  | Eff. % ([7]; dose 500 ppm): 97%
16 | 3.62^[a] | CC(C)CC1CCc2cccc(NC(=O)c3cccnc3C(F)F)c21 (centres unmarked) [Example 84] |  |  |  |  |  |  | 100 | 100 | 75 | 97 | 100 | Eff. % ([7]; dose 100 ppm): 99%
